In ChEMBL document CHEMBL3091402, “Identification of clinical candidates from the benzazepine class of histamine H3 receptor antagonists” (Bioorg Med Chem Lett, 2013):
pIC50, pKi: −log10 of the molar value.

Key:
[1] = biological target: Histamine H3 receptor (Homo sapiens, UniProt Q9Y5N1); assay: Antagonist activity at human histamine H3 receptor expressed in CHOK1 cells assessed as inhibition of GTPgammaS binding; type: functional, cell-based, CHO-K1
[2] = biological target: T1, Histamine H3 receptor (Rattus norvegicus, UniProt Q9QYN8); assay: Displacement of [3H]-R-alpha-ethylhistamine from histamine H3 receptor in rat cerebral cortical tissue membranes after 45 mins by liquid scintillation spectrometry
T1 sequence (Q9QYN8 whole entry): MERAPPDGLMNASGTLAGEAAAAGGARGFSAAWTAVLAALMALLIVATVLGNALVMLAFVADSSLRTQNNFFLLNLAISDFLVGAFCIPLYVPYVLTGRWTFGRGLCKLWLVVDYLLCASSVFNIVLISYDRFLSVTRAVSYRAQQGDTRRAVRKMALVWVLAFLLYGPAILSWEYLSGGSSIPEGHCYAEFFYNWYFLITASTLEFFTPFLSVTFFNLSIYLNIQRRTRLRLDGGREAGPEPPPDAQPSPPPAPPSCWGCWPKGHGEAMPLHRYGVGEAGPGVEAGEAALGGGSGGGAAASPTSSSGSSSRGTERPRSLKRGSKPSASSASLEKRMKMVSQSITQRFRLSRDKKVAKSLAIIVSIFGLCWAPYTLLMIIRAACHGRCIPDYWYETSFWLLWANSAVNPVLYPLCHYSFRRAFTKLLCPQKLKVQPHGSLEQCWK

[3] = test system: Rattus norvegicus; assay: Ex vivo binding affinity to histamine H3 receptor in rat cerebral cortex using [3H]-R-alpha-ethylhistamine at 3 mg/kg, po after 3 hrs by HPLC analysis; type: functional
[4] = test system: Liver microsome; assay: Intrinsic clearance in rat liver microsomes; type: ADME
[5] = test system: Rattus norvegicus; assay: Ex vivo binding affinity to histamine H3 receptor in rat cerebral cortex using [3H]-R-alpha-ethylhistamine at 0.3 mg/kg, po after 3 hrs by HPLC analysis; type: functional
[6] = Ratio of drug level in brain to blood in rat at 3 mg/kg, po; type: ADME, organism-based; parameters: dose 3 mg/kg, route oral
[7] = test system: Blood; assay: Drug level in rat blood at 3 mg/kg, po; type: ADME, organism-based; parameters: dose 3 mg/kg, route oral; settings: in vivo, read-out: Drug uptake
[8] = biological target: Histamine H2 receptor (Homo sapiens, UniProt P25021); assay: Binding affinity to human histamine H2 receptor
Chain of Histamine H2 receptor (P25021 whole entry): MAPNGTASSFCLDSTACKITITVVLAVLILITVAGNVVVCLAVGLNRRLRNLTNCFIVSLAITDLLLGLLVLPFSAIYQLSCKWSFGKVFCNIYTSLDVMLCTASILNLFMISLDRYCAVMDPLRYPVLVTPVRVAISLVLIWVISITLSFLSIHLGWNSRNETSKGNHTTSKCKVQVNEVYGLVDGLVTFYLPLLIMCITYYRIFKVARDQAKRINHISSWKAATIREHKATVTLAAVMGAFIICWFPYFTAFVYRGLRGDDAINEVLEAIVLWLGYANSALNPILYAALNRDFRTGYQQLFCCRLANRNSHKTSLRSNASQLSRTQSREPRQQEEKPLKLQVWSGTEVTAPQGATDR

[9] = biological target: T1, Histamine H3 receptor; assay: Displacement of [3H]-R-alpha-ethylhistamine from rat histamine H3 receptor expressed in HEK293 cells after 45 mins by liquid scintillation spectrometry; type: cell-based
[10] = biological target: Histamine H1 receptor (Homo sapiens, UniProt P35367); assay: Binding affinity to human histamine H1 receptor
Chain of Histamine H1 receptor (P35367 whole entry): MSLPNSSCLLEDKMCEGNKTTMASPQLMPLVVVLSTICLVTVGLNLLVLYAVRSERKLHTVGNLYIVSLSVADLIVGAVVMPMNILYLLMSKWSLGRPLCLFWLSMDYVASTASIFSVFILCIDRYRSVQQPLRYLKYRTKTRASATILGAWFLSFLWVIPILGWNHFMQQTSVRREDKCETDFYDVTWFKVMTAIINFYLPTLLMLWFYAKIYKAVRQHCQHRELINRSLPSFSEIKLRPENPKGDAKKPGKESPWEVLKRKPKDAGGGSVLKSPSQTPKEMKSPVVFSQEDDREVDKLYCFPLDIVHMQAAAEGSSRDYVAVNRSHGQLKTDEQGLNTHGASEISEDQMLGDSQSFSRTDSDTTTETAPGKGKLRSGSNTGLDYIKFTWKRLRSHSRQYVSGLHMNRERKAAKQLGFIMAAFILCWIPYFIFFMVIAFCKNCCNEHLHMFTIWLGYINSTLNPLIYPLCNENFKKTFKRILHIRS

[11] = test system: Liver microsome; assay: Intrinsic clearance in human liver microsomes; type: ADME
[12] = Time dependent inhibition of CYP450 (unknown origin); type: ADME, Homo sapiens
[13] = test system: Rattus norvegicus; assay: Ex vivo binding affinity to histamine H3 receptor in po dosed rat cerebral cortex using [3H]-R-alpha-ethylhistamine after 2 hrs by HPLC analysis; type: functional
[14] = biological target: Histamine H4 receptor (Homo sapiens, UniProt Q9H3N8); assay: Binding affinity to human histamine H4 receptor
Chain of Histamine H4 receptor (Q9H3N8 whole entry): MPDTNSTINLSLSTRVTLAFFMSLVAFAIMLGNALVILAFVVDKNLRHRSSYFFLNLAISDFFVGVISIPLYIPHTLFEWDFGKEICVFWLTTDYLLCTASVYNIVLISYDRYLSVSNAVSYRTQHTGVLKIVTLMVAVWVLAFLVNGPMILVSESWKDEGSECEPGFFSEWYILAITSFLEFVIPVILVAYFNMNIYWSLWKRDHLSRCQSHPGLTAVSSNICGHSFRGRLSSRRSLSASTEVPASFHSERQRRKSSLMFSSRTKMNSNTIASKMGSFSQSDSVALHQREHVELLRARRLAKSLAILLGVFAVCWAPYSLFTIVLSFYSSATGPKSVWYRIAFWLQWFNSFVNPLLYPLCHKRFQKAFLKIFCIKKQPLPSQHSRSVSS

[15] = test system: Rattus norvegicus; assay: Reversal of RAMH-induced dipsogenia in po dosed Lister Hooded rat treated 2 hrs before RAMH challenge measured after 1 hr; type: functional
[16] = biological target: hERG (KCNH2) (Homo sapiens, UniProt Q12809); assay: Inhibition of human ERG at 10 uM by patch clamp experiment
Chain of hERG (KCNH2) (Q12809 whole entry): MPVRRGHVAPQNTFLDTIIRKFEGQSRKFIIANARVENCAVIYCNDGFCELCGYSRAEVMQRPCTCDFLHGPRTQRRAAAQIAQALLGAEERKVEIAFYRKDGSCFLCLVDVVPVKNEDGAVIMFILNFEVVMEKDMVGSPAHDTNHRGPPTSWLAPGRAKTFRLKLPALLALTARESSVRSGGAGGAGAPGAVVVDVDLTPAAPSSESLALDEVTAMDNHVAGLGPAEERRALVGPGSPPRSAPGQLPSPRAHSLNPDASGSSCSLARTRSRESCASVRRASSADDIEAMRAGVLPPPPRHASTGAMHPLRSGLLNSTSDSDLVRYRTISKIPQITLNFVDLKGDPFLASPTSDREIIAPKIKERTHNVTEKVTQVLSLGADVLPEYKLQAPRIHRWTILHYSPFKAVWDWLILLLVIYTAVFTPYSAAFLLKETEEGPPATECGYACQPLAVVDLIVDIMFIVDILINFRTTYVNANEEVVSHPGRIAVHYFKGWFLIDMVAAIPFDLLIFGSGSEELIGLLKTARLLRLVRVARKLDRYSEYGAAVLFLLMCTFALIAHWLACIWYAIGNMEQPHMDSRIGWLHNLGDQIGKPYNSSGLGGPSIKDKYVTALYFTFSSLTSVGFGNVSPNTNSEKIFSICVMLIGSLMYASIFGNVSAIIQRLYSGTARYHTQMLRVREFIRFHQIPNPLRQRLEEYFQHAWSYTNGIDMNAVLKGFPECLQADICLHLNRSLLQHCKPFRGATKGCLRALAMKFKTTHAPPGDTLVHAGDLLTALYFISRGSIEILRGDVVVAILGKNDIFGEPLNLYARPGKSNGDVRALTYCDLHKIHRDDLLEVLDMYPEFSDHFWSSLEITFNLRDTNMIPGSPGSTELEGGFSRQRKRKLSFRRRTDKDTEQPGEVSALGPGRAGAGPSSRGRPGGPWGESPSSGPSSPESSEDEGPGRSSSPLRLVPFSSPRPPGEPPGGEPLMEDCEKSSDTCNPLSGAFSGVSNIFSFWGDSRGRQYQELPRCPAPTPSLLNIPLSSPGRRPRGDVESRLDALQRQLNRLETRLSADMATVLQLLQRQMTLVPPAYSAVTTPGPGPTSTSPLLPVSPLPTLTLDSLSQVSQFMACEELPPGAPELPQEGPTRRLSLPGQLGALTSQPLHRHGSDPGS

[17] = test system: Rattus norvegicus; assay: Reversal of RAMH-induced dipsogenia in Lister Hooded rat at 3 mg/kg, po treated 2 hrs before RAMH challenge measured after 1 hr; type: functional
[18] = Aqueous solubility of the compound; type: physicochemical
[19] = Ratio of drug level in brain to blood in rat at 3 mg/kg, po after 1 hr; type: ADME, organism-based; parameters: dose 3 mg/kg, route oral

Chain of Histamine H3 receptor (Homo sapiens, UniProt Q9Y5N1) (Q9Y5N1 whole entry): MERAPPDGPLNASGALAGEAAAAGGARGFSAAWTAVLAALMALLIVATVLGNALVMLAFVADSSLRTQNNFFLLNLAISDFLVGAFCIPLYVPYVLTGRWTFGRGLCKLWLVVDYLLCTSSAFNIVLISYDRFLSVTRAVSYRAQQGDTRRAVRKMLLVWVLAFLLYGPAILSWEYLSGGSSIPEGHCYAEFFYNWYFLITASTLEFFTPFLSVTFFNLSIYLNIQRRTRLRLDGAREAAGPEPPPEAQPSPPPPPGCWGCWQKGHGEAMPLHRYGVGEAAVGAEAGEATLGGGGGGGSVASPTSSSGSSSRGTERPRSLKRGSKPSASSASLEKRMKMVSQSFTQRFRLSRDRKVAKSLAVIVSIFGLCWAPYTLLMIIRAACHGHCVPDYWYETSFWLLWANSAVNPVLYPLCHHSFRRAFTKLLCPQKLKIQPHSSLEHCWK

SMILES: c1cnc(Oc2ccc3c(c2)CCN(C2CCC2)CC3)nc1
- pKi [1]: 8.60

SMILES: c1ccc(Oc2ccc3c(c2)CCN(C2CCC2)CC3)cc1
- pKi [1]: 8.50

SMILES: Cc1noc(C)c1-c1ccc(Oc2ccc3c(c2)CCN(C2CCC2)CC3)nc1
- pKi [1]: 9.30
- pKi [2]: 8.60
- Activity [3]: 48%

SMILES: c1cnn(-c2ccc(Oc3ccc4c(c3)CCN(C3CCC3)CC4)nc2)c1
- pKi [1]: 9.30
- pKi [2]: 8.50
- Activity [3]: 73%

SMILES: Cc1nc(Oc2ccc3c(c2)CCN(C2CCC2)CC3)ccc1C#N
- pKi [1]: 9.70
- pKi [2]: 8.40
- Activity [3]: 18%

SMILES: c1cnc(Oc2ccc3c(c2)CCN(C2CCC2)CC3)cn1
- pKi [1]: 8.80

SMILES: c1cncc(Oc2ccc3c(c2)CCN(C2CCC2)CC3)c1
- pKi [1]: 8.60

SMILES: CC(C)NC(=O)c1ccc(Oc2ccc3c(c2)CCN(C2CCC2)CC3)nc1
- CLH [4]: < 3 mL/min/g
- pKi [1]: 9.90
- pKi [2]: 9.20
- Activity [5]: 19%

SMILES: CNC(=O)c1ccc(Oc2ccc3c(c2)CCN(C2CCC2)CC3)cc1
- pKi [1]: 9.30
- pKi [2]: 8.30
- Kp [6]: 2.5
- Activity [3]: 68%
- concentration [7]: 540 nM

SMILES: CNC(=O)c1cnc(Oc2ccc3c(c2)CCN(C2CCC2)CC3)cn1
- CLH [4]: 1.4 mL/min/g
- pKi [8]: < 5.50
- pKi [9]: 8.95
- pKi [10]: 5.80
- CLH [11]: 1.2 mL/min/g
- pKi [2]: 9.08
- pIC50 [12]: < 5.00
- ED50 [13]: 0.04 mg/kg
- pKi [14]: < 5.50
- ED50 [15]: 0.02 mg/kg
- Activity [3]: 82%
- concentration [7]: 1120 nM
- inhibition at 10 µM [16]: < 10%

SMILES: CNC(=O)c1ccc(Oc2ccc3c(c2)CCN(C2CCC2)CC3)nn1
- pKi [1]: 8.90
- pKi [2]: 8.10
- Kp [6]: 2.8
- ED50 [13]: 0.85 mg/kg
- ED50 [15]: 0.33 mg/kg
- Activity [3]: 79%
- concentration [7]: 700 nM

SMILES: O=C1OCCN1c1ccc(Oc2ccc3c(c2)CCN(C2CCC2)CC3)nc1
- pKi [1]: 9.80
- pKi [2]: 9.10
- Activity [5]: 44%

SMILES: CNC(=O)c1ccc(Oc2ccc3c(c2)CCN(C2CCCC2)CC3)nc1
- pKi [1]: 9.30
- Activity [3]: 61%

SMILES: CNC(=O)c1ccc(Oc2ccc3c(c2)CCN(C2CCC2)CC3)nc1 [GSK189254]
- CLH [4]: 0.5 mL/min/g
- pKi [8]: < 5.50
- Activity [17]: 100%
- pKi [9]: 9.17
- pKi [1]: 9.70
- pKi [10]: < 5.60
- CLH [11]: 0.5 mL/min/g
- pKi [2]: 8.58
- solubility [18]: > 10000 µg/mL
- pIC50 [12]: < 5.00
- ED50 [13]: 0.17 mg/kg
- pKi [14]: < 5.50
- ED50 [15]: 0.05 mg/kg
- Activity [3]: 100%
- Kp at 1 h [19]: 1.3
- concentration [7]: 880 nM
- inhibition at 10 µM [16]: 36%

SMILES: Cc1nnc(-c2ccc(Oc3ccc4c(c3)CCN(C3CCC3)CC4)nc2)o1
- pKi [1]: 9.80
- pKi [2]: 9.30
- Kp [6]: 2.8
- ED50 [13]: 0.42 mg/kg
- ED50 [15]: 0.05 mg/kg
- Activity [3]: 84%
- concentration [7]: 2700 nM

SMILES: O=C1CCCN1c1ccc(Oc2ccc3c(c2)CCN(C2CCCC2)CC3)nc1
- pKi [1]: 9.90
- pKi [2]: 9.10
- Kp [6]: 1
- ED50 [13]: 0.1 mg/kg
- ED50 [15]: 0.04 mg/kg
- Activity [3]: 88%
- concentration [7]: 550 nM

SMILES: O=C1CCCCN1c1ccc(Oc2ccc3c(c2)CCN(C2CCC2)CC3)nc1
- pKi [1]: 9.50
- pKi [2]: 8.60
- Activity [3]: 10%

SMILES: CN1CCN(c2ccc(Oc3ccc4c(c3)CCN(C3CCC3)CC4)nc2)C1=O
- pKi [1]: 10.00
- pKi [2]: 9.00
- ED50 [13]: 1.9 mg/kg
- Activity [3]: 81%

SMILES: CC(=O)c1ccc(Oc2ccc3c(c2)CCN(C2CCC2)CC3)cn1
- pKi [1]: 10.00
- pKi [2]: 9.20
- Activity [5]: 66%

SMILES: CC1CCC(=O)N1c1ccc(Oc2ccc3c(c2)CCN(C2CCC2)CC3)nc1 (configuration not stated)
- pKi [1]: 9.50
- pKi [2]: 8.60
- Activity [3]: 52%

SMILES: CC(=O)Nc1ccc(Oc2ccc3c(c2)CCN(C2CCC2)CC3)nc1
- pKi [1]: 9.70
- pKi [2]: 9.00
- Kp [6]: 0.8
- ED50 [13]: 0.32 mg/kg
- Activity [3]: 89%
- concentration [7]: 1200 nM

SMILES: O=C(c1ccc(Oc2ccc3c(c2)CCN(C2CCC2)CC3)nc1)N1CCCC1
- CLH [4]: < 3 mL/min/g
- Activity [17]: 78%
- pKi [1]: 9.60
- pKi [2]: 9.20
- Activity [3]: 65%
- concentration [7]: 10 nM

SMILES: NC(=O)c1ccc(Oc2ccc3c(c2)CCN(C2CCC2)CC3)nc1
- CLH [4]: < 3 mL/min/g
- pKi [1]: 9.30
- pKi [2]: 8.70
- Activity [3]: 81%

SMILES: O=C1C[C@@H](O)CN1c1ccc(Oc2ccc3c(c2)CCN(C2CCC2)CC3)nc1
- pKi [1]: 9.70
- pKi [2]: 8.80
- Activity [3]: 56%

SMILES: CNC(=O)c1ccc(Oc2ccc3c(c2)CCN(C2CCC2)CC3)cn1
- pKi [1]: 9.30
- pKi [2]: 8.40
- Kp [6]: 3.4
- ED50 [13]: 0.43 mg/kg
- ED50 [15]: 0.25 mg/kg
- Activity [3]: 82%
- concentration [7]: 570 nM

SMILES: CCN(C)C(=O)c1ccc(Oc2ccc3c(c2)CCN(C2CCC2)CC3)nc1
- CLH [4]: < 3 mL/min/g
- Activity [17]: 94%
- pKi [1]: 9.20
- pKi [2]: 8.00
- Activity [3]: 56%
- Kp at 1 h [19]: 1
- concentration [7]: 270 nM

SMILES: O=C(N1CCOCC1)N1CCC(Oc2ccc3c(c2)CCN(C2CCC2)CC3)CC1
- Activity [17]: 100%
- ED50 [13]: 2 mg/kg
- Activity [3]: 43%

SMILES: CCNC(=O)c1ccc(Oc2ccc3c(c2)CCN(C2CCC2)CC3)cn1
- pKi [1]: 9.20
- pKi [2]: 8.40
- Activity [3]: 62%

SMILES: c1cc(-c2ccc(Oc3ccc4c(c3)CCN(C3CCC3)CC4)nc2)[nH]n1
- pKi [1]: 9.60
- pKi [2]: 8.60
- Activity [5]: 23%

SMILES: c1ccc(Oc2ccc3c(c2)CCN(C2CCC2)CC3)nc1
- pKi [1]: 9.10

SMILES: O=C1CCN1c1ccc(Oc2ccc3c(c2)CCN(C2CCC2)CC3)nc1
- pKi [1]: 10.10
- pKi [2]: 9.70
- Activity [5]: 21%
